Measurements reported in patent publication US20220142959A1, “LEUCINE, ACETYL LEUCINE, AND RELATED ANALOGS FOR TREATING DISEASE” (priority 2019, published 2022).

Assays:
[1] = CCI induced TBI mice: food intake and body weight; type: in vivo; conditions: data not shown
Procedure: (§1) Controlled cortical impact (CCI) induced TBI was performed in male C57BL6/J mice (20-25 g). Briefly, after a 10-mm midline incision was made over the skull, the skin and fascia were retracted, and a 4-mm craniotomy was made on the central aspect of the left parietal bone of mice under surgical anesthesia (2-3% isoflurane evaporated in a gas mixture containing 70% N20 and 30% 02). Moderate injury was induced in the exposed brain by a custom microprocessor-controlled and compressed air driven pneumatic impactor of 3.5 mm diameter tip with the impact velocity of 6 m/s and a deformation depth of 2 mm.
(§2) N-Acetyl-L-Leucine (“NAL” or “NALL”) was dissolved in ethanol to prepare a 50 mg/ml solution which was then diluted in water to give a 10 mg/ml solution. About 0.25 ml of the NAL solution (10 mg/ml) was orally administered in mice at a […] (2.5 mg NAL/25 g mouse) via oral gavage each day after CCI induced TBI for 4 days. Mice were also fed with NAL at 0.5 mg/kg chow powder chow mixed with diet gel for up to 7 days after injury.

[2] = test system: rat model of an acute unilateral labyrinthectomy; conditions: activation of vestibulo-cerebellum, deactivation of posterolateral thalamus; cited from earlier work
[3] = test system: rat primary cortical neurons; assay: U18666A-mediated impairment of lysosomal fusion in rat primary cortical neurons; type: cell-based; conditions: co-treated with U18666A (2 μg/mL) and compound 1 mM, 24 h
Procedure: (§3) FIG. 18. is a histogram of the ratio of LC3-II normalised to βIII tubulin (expressed as a percentage of untreated (n=1)) in rat primary cortical neurons that were treated with U18666A (2 μg/ml, 24 hr) in the absence or presence of ADLL, ALL, ADL, DLL, LL, DL, and LLE (1 mM, 24 hr).
as §3, with “19” for “18.”, “is” for “is a”, “APP-CTFs-6 and -7” for “LC3-II”, “their respective CTFs in untreated cells” for “βIII tubulin”, “(n=1)” for “(n=1))”
The efficacy of ADLL, ALL, ADL, DLL, LL, DL, and LLE in alleviating the U18666A-mediated impairment of autophagosome-lysosome fusion and endosomal lysosomal fusion was investigated. In this cell-based assay of impaired EAL flux, the reappearance of basal levels of APP CTFs-6 and -7, provided an indication of improved endosomal-lysosomal fusion.
Neurons were co-treated with U18666A (2 μg/mL) along with ADLL, ALL, ADL, DLL, LL, DL, and LLE (1 mM, 24 h).

LC3-II and p62/SQSTM1 = assay: Western blot of autophagy flux markers in cortex after CCI induced TBI; type: in vivo, mice
Procedure: as §1, §2
Around 5 mm tissue of ipsilateral cortex around the site of injury from TBI mice or the corresponding tissue of same volume around the same cortical region from sham mice were dissected and processed. […] Protein bands were detected using chemiluminiscence kit (Pierce, 34076) and visualized using Chemi-doc system (Bio-Rad). Band intensity was analyzed using Image Lab software (Bio-Rad) and normalized to loading control (β-Actin). […]
Autophagy is a lysosome dependent cellular degradation process that is disrupted due to lysosomal damage after TBI. […] Whether attenuation of cell death following NALL treatment in TBI mice is mediated through the restoration of autophagy flux was assessed.
The levels of LC3-II and p62/SQSTM1 in the cortical tissue lysates prepared from vehicle and NAL fed naïve and TBI mice were determined by western blot analysis. A decrease in the levels of LC3-II in the brain of NALL fed mice as compared to vehicle treated mice at day 1 after TBI was detected. […]

TUNEL positive cells = assay: TUNEL assay on brain sections after CCI induced TBI; type: in vivo; conditions: injured mice fed with NALL vs vehicle fed TBI mice
Procedure: as §1, §2
The level of α-fodrin cleavage products in NALL treated, vehicle treated sham, and TBI mouse cortices were determined by Western blot analysis and using the TUNEL assay to assess whether NALL treatment decreases cortical cell death after TBI. […]

CC(=O)N[C@@H](CC(C)C)C(=O)O [ALL, acetyl-L-leucine]
change in body weight ([1]; NALL treated TBI mice): no appreciable change
food intake ([1]; sham vs TBI mice fed with NALL): No significant difference
effect on postural compensation [2]: significant effect
CTF-6 and -7 (endosomal-lysosomal fusion) [3]: reappearance of basal amounts
LC3-II levels [3]: lower than the basal levels
p62/SQSTM1 level in the cortex (LC3-II and p62/SQSTM1; NALL fed vs vehicle treated mice after TBI): decrease
levels of LC3-II in the brain (LC3-II and p62/SQSTM1; NALL fed vs vehicle treated mice, day 1 after TBI): decrease
autophagy flux (LC3-II and p62/SQSTM1; mouse cortices after TBI): improves autophagy flux
TUNEL positive cells in brain sections (TUNEL positive cells): Lower levels
